In brackets after ≈: the same amount, converted by molar mass.
Key:
[1] = ABTS radical scavenging assay; settings: ±SD; 10 min, 30 °C
Protocol: The ABTS radical scavenging assay of samples (ligands or complexes) was performed with ascorbic acid as a positive control. Briefly, 30 μL of different concentrations of the samples, dissolved in DMSO, was mixed with 170 μL of ABTS solution (2 mM ABTS diammonium salt, 3.5 mM potassium persulfate) and completed with water to a final volume of 300 μL. ABTS solution with DMSO was used as a control. […] ABTS inhibition was calculated according to the following equation:ABTS Inhibition (%) = [(Acontrol − Asample)/Acontrol] × 100% The radical scavenging activity of the samples was shown as the IC50 value (the concentration of the analyzed samples that caused a decrease in the non-reduced form of the ABTS radical by 50%).

[2] = DPPH radical scavenging assay; settings: ±SD; 30 min, room temperature
Protocol: The DPPH radical scavenging assay of samples was performed with ascorbic acid as a positive control. Briefly, 100 μL of different concentrations of the complexes, dissolved in DMSO, was mixed with 100 μL of 0.06 mM DPPH methanolic solution and incubated at room temperature in the dark for 30 min. The change in absorbance at λ = 517 nm was analyzed with the use of a 96-well microplate reader (Epoch, BioTek System, Winooski, VT, USA). The control was composed of DPPH and DMSO. DPPH inhibition was calculated according to the following equation:DPPH Inhibition (%) = [(Acontrol − Asample)/Acontrol] × 100% The radical scavenging activity of the samples was shown as the IC50 value (the concentration of the analyzed samples that caused a decrease in the non-reduced form of the DPPH radical by 50%).

[3] = system: A375, HepG2, LS-180, T98G and CCD-1059Sk cell lines; experiment: MTT cytotoxicity assay, summary statements over several cell lines; format: cell-based
Protocol: (§1) Cytotoxic activity of the investigated compounds was evaluated against T98G (glioblastoma), HepG2 (hepatoma), LS-180 (colon cancer) and A375 (melanoma) cell lines. Human normal skin fibroblasts, CCD-1059Sk (CRL-2072), were used as reference (non-cancerous) cells. All of the cell lines were obtained from American Type Culture Collection (ATCC; Manassas, VA, USA). A375, T98G and CCD-1059Sk cells were cultured in Dulbecco’s Modified Eagle’s Medium (DMEM) (Sigma Aldrich, St. Louis, MO, USA) supplemented with 10% FBS, penicillin (100 U/mL) and streptomycin (100 μg/mL). LS-180 and HepG2 cells were cultured in Eagle’s Minimum Essential Medium supplemented with 10% FBS, penicillin (100 U/mL) and streptomycin (100 μg/mL). All of the cells were maintained at 37 °C in a humidified atmosphere of 5% CO2. The compounds were dissolved in DMSO in order to obtain stock solutions. At the day of the experiment, the suspension of cells (1 × 10^5 cells/mL) was distributed onto 96-well plates at a volume of 100 μL/well. After attachment, the cells were treated with the increased concentrations of the tested compounds in medium containing 2% FBS and incubated for 24 h. Then, the medium was removed from wells, and cells were rinsed with PBS. Afterwards, 15 μL of MTT working solution (5 mg/mL in PBS) was added to each well, and the plates were incubated for 3 h. Subsequently, 100 μL of 10% SDS solution was added to each well in order to dissolve the precipitated formazan crystals. After overnight incubation at 37 °C, the absorbance of the obtained solution was measured at λ = 570 nm using a microplate reader (Epoch, BioTek Instruments, Inc., Winooski, VT, USA). At least two independent experiments were performed in triplicate. […] IC50 values of the investigated derivatives and positive control (etoposide) were calculated using the IC50 online calculator [101].

[4] = system: T98G (glioblastoma); experiment: MTT cytotoxicity assay on T98G cells; format: cell-based; settings: MTT, 24 h incubation
Protocol: as §1

[5] = system: HepG2 (hepatoma); experiment: MTT cytotoxicity assay on HepG2 cells; format: cell-based, human; settings: MTT, 24 h incubation
Protocol: as §1

[6] = system: LS-180 (colon cancer); experiment: MTT cytotoxicity assay on LS-180 cells; format: cell-based, human; settings: 24 h incubation
Protocol: as §1

[7] = system: CCD-1059Sk (human normal skin fibroblasts); experiment: MTT cytotoxicity assay on non-cancerous fibroblasts; format: cell-based; settings: 24 h incubation, non-cancerous cells
Protocol: as §1

[8] = system: A375 (melanoma); experiment: MTT cytotoxicity assay on A375 cells; format: cell-based, human; settings: 24 h incubation
Protocol: as §1

[9] = system: Candida glabrata ATCC 90030; experiment: Two-fold microdilution broth method, MIC; format: cell-based; settings: 35 °C, 24 h
From the text: (§2) Antibacterial and antifungal activities of the free ligands L2, L3 and L4 and the corresponding copper(II) complexes C2, C3 and C4 were screened using the two-fold microdilution broth method. Minimal inhibitory concentrations (MICs) of tested compounds for the panel of reference Gram-positive bacteria, including Staphylococcus aureus ATCC 25923, Staphylococcus aureus ATCC BAA-1707, Staphylococcus epidermidis ATCC 12228, Micrococcus luteus ATCC 10240 and Bacillus cereus ATCC 10876; Gram-negative bacteria, including Salmonella Typhimurium ATCC 14028, Escherichia coli ATCC 25922, Proteus mirabilis ATCC 12453, Klebsiella pneumoniae ATCC 13883 and Pseudomonas aeruginosa ATCC 9027; and yeasts, including Candida albicans ATCC 102231, Candida parapsilosis ATCC 22019 and Candida glabrata ATCC 90030 were determined. The procedure has been described in detail before. Briefly, the solutions of tested compounds dissolved in dimethylosulfoxide (DMSO) were suspended in Mueller–Hinton broth for bacteria or Mueller–Hinton broth with 2% glucose for fungi. Then, the series of two-fold dilutions were carried out in the sterile Nunc™ MicroWell™ 96-Well Microplates (ThermoFisher Scientific Inc.), obtaining concentrations from 1000 to 7.8 mg/L in the appropriate medium. Simultaneously, the inocula of 24 h cultures of microorganisms in sterile physiological saline (0.5 McFarland standard density) were prepared and added to each well, obtaining final density of 5 × 10^5 CFU/mL for bacteria and 5 × 10^4 CFU/mL for yeasts. Proper positive (inoculum without tested compound) and negative (compound without inoculum) controls were added in each microplate. After incubation (35 °C, 24 h), the growth of microorganisms was measured spectrophotometrically at 600 nm (BioTEK ELx808, Bio-Tek Instruments, Inc., Winooski, VT, USA). MICs were marked at the lowest concentration of the compound without the growth of bacteria or fungi.

[10] = system: Candida albicans ATCC 102231; experiment: Two-fold microdilution broth method, MIC; format: cell-based; settings: 35 °C, 24 h
From the text: as §2

[11] = system: Candida parapsilosis ATCC 22019; experiment: Two-fold microdilution broth method, MIC; format: cell-based; settings: 35 °C, 24 h
From the text: as §2

Row | SMILES | IC50 ABTS [1] | IC50 DPPH [2] | IC50, HepG2 and T98G ([3]; range over HepG2 and T98G) | IC50 ± SD, T98G [4] | IC50 ± SD, HepG2 [5] | IC50 ± SD, LS180 [6] | IC50 ± SD, CCD-1059-Sk [7] | IC50 ± SD, A375 [8] | MIC, C. glabrata ATCC 90030 [9] | MIC, C. albicans ATCC 102231 [10] | MIC, C. parapsilosis ATCC 22019 [11] | IC50, HepG2, LS180 and T98G ([3]; range over HepG2, LS180 and T98G)
1 | O=C1O[C@H]([C@@H](O)CO)C(O)=C1O [Ascorbic acid, reference compound] | 20.15 ± 0.33 µg/mL (≈ 114 µM) | 11.65 ± 0.54 µg/mL (≈ 66.1 µM) |  |  |  |  |  |  |  |  |  | 
2 | O=C1CCN1c1cc2ccccc2cn1.O=C1CCN1c1cc2ccccc2cn1.[Cl][Cu][Cl] [C1, Dichloro{bis[1-(Isoquinolin-3-yl)azetidin-2-one]}copper(II)] | 112.67 ± 1.8 µg/mL | 37.45 ± 0.66 µg/mL | 8.25 to 14.89 µg/mL | 8.25 ± 0.36 µg/mL | 14.89 ± 0.56 µg/mL | 11.46 ± 0.69 µg/mL | 18.83 ± 0.91 µg/mL | 37.97 ± 3.01 µg/mL |  |  |  | 
3 | CN1CCN(c2cc3ccccc3cn2)C1=O.[Cl][Cu][Cl] [C3, Dichloro[1-(Isoquinolin-3-yl)-3-methylimidazolidin-2-one]copper(II)] | 106.19 ± 2.55 µg/mL | 380.65 ± 2.74 µg/mL |  | 10.55 ± 0.74 µg/mL | 12.00 ± 0.36 µg/mL | 7.09 ± 0.53 µg/mL | 25.17 ± 0.85 µg/mL | 22.78 ± 1.14 µg/mL | 1000 µg/mL | 1000 µg/mL | 1000 µg/mL | 
4 | CCN1CCN(c2cc3ccccc3cn2)C1=O.[Cl][Cu][Cl] [C4, Dichloro[1-ethyl-3-(isoquinolin-3-yl)imidazolidin-2-one]copper(II)] | 72.5 ± 0.97 µg/mL | 26.46 ± 1.04 µg/mL |  | 9.27 ± 0.11 µg/mL |  | 5.92 ± 0.54 µg/mL | 18.25 ± 1.37 µg/mL | 37.80 ± 3.11 µg/mL | >1000 µg/mL | 500 µg/mL | >1000 µg/mL | 5.92 to 9.27 µg/mL

Reference: paper PMC10779222, “Copper(II) Complexes with 1-(Isoquinolin-3-yl)heteroalkyl-2-ones: Synthesis, Structure and Evaluation of Anticancer, Antimicrobial and Antioxidant Potential” (International Journal of Molecular Sciences, 2023)
